From US11484513B2, “Salbutamol-containing ophthalmic medicament” (priority 2016, dated 2022)

Assays:
Pigmentosa retinitis = assay: Clinical observation in pigmentosa retinitis patients; type: in vivo, human
Source text: (§1) The invention will be illustrated further by the description of clinical examples, which of course are not limiting in nature. The medicament was administrated orally, topically in the form of eye drops or by intraocular injection especially intravitreal injection, unless indicated differently.

Vitreo macular traction = assay: Clinical observation in vitreo macular traction / proliferative diabetic retinopathy (vitreolysis); type: in vivo, human
Source text: as §1
In many cases of proliferative diabetic retinopathy including fibrovascular proliferation, retinal detachment, vitreo macular traction, the intravitreal injection of Salbutamol led to induction of posterior vitreous detachment, easier peeling and removal of epiretinal fibrotic membrane and internal limiting membrane particularly in macular hole pathology.

Presbyopia = assay: Clinical observation in presbyopia patients; type: in vivo, human; details: 08 patients, eye drops
Protocol: as §1
(§2) According to particular embodiments where topical administration using eye drops is carried out, the dosages, posologies, administration regimen of the administered active principles are as described in the particular embodiments disclosed in the detailed description, i.e., Salbutamol is administered topically in a concentration of 0.1% (w/v), and/or Ramiprilate is administered topically in a concentration of 2% (w/v), and/or eplerenone is administered topically in a concentration of 1% (w/v), and/or N Acetyl DL Leucine is administered topically in a concentration of 1% (w/v), the active principle(s) being administered once or twice or three times, and up to four times a day, during 1, 2 or 3 months, or more, unless specified differently.
08 patients received Salbutamol in the form of eye drops and experimented an improvement of their near vision and a decrease in presbyopia. […] Salbutamol has proven to be an effective treatment of presbyopia.

Keratoconus = assay: Clinical observation in keratoconus patients; type: in vivo, human; details: 02 keratoconus patients
Source text: as §1, with “differently. 02 patients received Salbutamol, they noticed an improvement of visual acuity and a reduced irregular astigmatism.” for “differently.”

Stargardt's disease = assay: Clinical observation in Stargardt's disease patients; type: in vivo, human; details: 8 patients
Source text: as §1
8 patients treated with Salbutamol noticed an improvement of their visual acuity.
If we associate to Salbutamol one or more of these: N Acetyl DL Leucine, nitric monoxide donor (vitamin C, vitamin B9), Ramiprilat, and aldosterone receptor antagonist; improvement is noted.

Glaucoma = assay: Clinical observation in glaucoma patients; type: in vivo, human; details: patients with known glaucoma, pooled (Salbutamol alone or associated)
Protocol: as §1
Patients with known glaucoma experienced a decrease in their ocular tension, and an improvement of their visual acuity and visual field once they are treated with Salbutamol or salbutamol associated with one or more of these: N Acetyl DL Leucine, glucose, magnesium, aldosterone receptor antagonist (eplerenone), angiotensin converting enzyme inhibitor (Ramiprilat), β1 blocker and anhydrase carbonic inhibitor.

Periretinal fibrosis = assay: Clinical observation in periretinal fibrosis; details: human, in vivo
Source text: as §1
13) Periretinal fibrosis: is reduced after Salbutamol treatment.

Astigmatism = assay: Clinical observation in astigmatism subjects; type: in vivo, human
Source text: The invention will be illustrated further by the description of clinical examples, which of course are not limiting in nature. The medicament was administrated orally, topically in the form of eye drops or by intraocular injection especially intravitreal injection, unless indicated differently. This invention relates to the manufacture of an eye protective medicament, namely Salbutamol via general route or topical route (eye drops) for improving vision. More particularly, but not exclusively, it relates to eye drops comprising Salbutamol, which are intended for improving (i.e., in the present case decreasing the effects of presbyopia, myopia, hypermetropia and astigmatism) and for stabilizing them or even reversing their evolutive course thereof. The astigmatism subjects noticed an improvement of their refraction and visual acuity.

[1] = system: Age related macular degeneration; assay: Clinical observation in age related macular degeneration patients (visual acuity, OCT, fluoro-angiography); type: in vivo, human
Protocol: as §1, §2
The structural information provided by O.C.T is becoming a valuable diagnostic adjunct to fluorescein angiography. OCT is a valuable tool for probing the effect of these treatments.
15 patients were treated with salbutamol or salbutamol associated with one or more of these: aldosterone receptor antagonist, ACEI (angiotensin converting enzyme inhibitor), N Acetyl DL Leucine, magnesium and serrapeptase (Eye drops; tablets; intra ocular injection).
Patient three presented with a history of decreased vision in the right eye. […] Prior to receiving Salbutamol treatment an OCT scan was taken, which is shown in (FIG. 06).
Then we prescribe topically Salbutamol eye drops 0.1% (w/v), Ramiprilat eye drops 2% (W/v), Eplerenone eye drops 1% (w/v). N Acetyl DL Leucine eye drops 1% (w/v) association three times a day.
Patient two presented with a six months history of decreased vision in the right eye.
They were treated with Salbutamol eye drops 0.1% (w/v). Three months later visual acuity improved.

[2] = system: Age related physiological vision decline; assay: Clinical observation in age related physiological vision decline; type: in vivo, human; details: many cases, absence of any ocular pathology
Source text: as §1

Corneal oedema = assay: Clinical observation in corneal oedema patients; type: in vivo, human; details: 10 patients
Source text: as §1

[3] = system: Allergic conjunctivitis and blepharitis; assay: Clinical observation in allergic conjunctivitis and blepharitis patients; type: in vivo, human; details: 5 patients, eye drops
Source text: as §1

Dry eye = assay: Clinical observation in dry eye patients; type: in vivo, human; details: 7 patients, eye drops
Source text: as §1

Diabetic retinopathy = assay: Clinical observation in diabetic retinopathy patients (visual acuity, OCT); type: in vivo, human
Protocol: as §1, §2
Currently, one examination technique is very useful in evaluating diabetic; that's optical coherence tomography (O.C.T).
OCT is very sensitive in evaluating diabetic macular oedema, central macular thickness correlates with visual acuity.
The response of macular oedema to the administration of one drug such as Salbutamol or a medicament associating Salbutamol, angiotensin converting enzyme inhibitor, antagonist of aldosterone receptor and N Acetyl DL Leucine can be documented accurately by O.C.T imaging.
Diabetic patients were treated with these medicaments given topically,
The following study was undertaken on several patients having non-proliferative diabetic; retinopathy or proliferative diabetic retinopathy.
20 patients were treated with either Salbutamol or salbutamol associated with one or more of these: ACEI (angiotensin converting enzyme inhibitor), aldosterone receptor antagonist, N Acetyl DL Leucine, magnesium and serrapeptase (eye drops; tablets; intra ocular injection especially intra vitreal injection). […]

Vitreous hemorrhage = assay: Clinical observation in vitreous hemorrhage; type: in vivo, human; details: many cases
Source text: as §1

Cataract = assay: Clinical observation in cataract; type: in vivo, human; details: under salbutamol
Source text: as §1

Myopia = assay: Clinical observation in myopia patients; type: in vivo, human; details: 12 myopia patients, eye drops
Protocol: as §1, §2
This invention relates to the manufacture of an eye protective medicament, namely Salbutamol via general route or topical route (eye drops) for improving vision.
12 patients were evaluated and received salbutamol in the form of eye drops.
Results: in the addition to the improvement of their visual acuity, the refractive value was reduced. […]

Uveitis = assay: Clinical observation in uveitis cases (visual acuity, OCT); type: in vivo, human; details: 10 cases of uveitis pooled (salbutamol alone or associated)
Protocol: as §1, §2
In 10 cases of uveitis; salbutamol alone or associated with one or more of these: non-steroidal anti inflammatory drugs, angiotensin converting enzyme inhibitors, aldosterone receptors antagonist, β1 blocker, anhydrase carbonic inhibitor, magnesium, corticosteroids and serrapeptase reduced inflammatory disorders. […]

[4] = 15 patients pooled (salbutamol alone or associated), eye drops, tablets, intra ocular injection
[5] = patient two, right eye, Salbutamol eye drops 0.1% (w/v), three months later
[6] = 20 patients pooled (Salbutamol alone or associated), eye drops, tablets, intra ocular injection

CC(C)(C)NCC(O)c1ccc(O)c(CO)c1 (stereo not shown) [Salbutamol]
visual acuity (Pigmentosa retinitis; 9 patients, all of them): improvement | visual field (Pigmentosa retinitis; 9 patients, all of them): improvement | visual function (Pigmentosa retinitis; pigmentosa retinitis): improvement | effect on the retina (Vitreo macular traction; during vitreolysis): without adversely affecting the retina | proteolytic activity (Vitreo macular traction; human, in vivo): seems to have a proteolytic activity | vitreolysis (Vitreo macular traction; human, in vivo): promotes a vitreolysis inducing both synchesis and synerisis | posterior vitreous detachment (Vitreo macular traction; intravitreal injection, many cases of proliferative diabetic retinopathy incl. vitreo macular traction): induction | peeling and removal of epiretinal fibrotic membrane and internal limiting membrane (Vitreo macular traction; intravitreal injection, many cases of proliferative diabetic retinopathy, particularly macular hole pathology): easier | near vision (Presbyopia): improvement | need to wear a correction of the near vision (Presbyopia): Some of them did not need any longer | presbyopia (Presbyopia): decrease | irregular astigmatism (Keratoconus): reduced | visual acuity (Keratoconus): improvement | visual acuity (Stargardt's disease): improvement | ocular tension (Glaucoma): decrease | visual acuity (Glaucoma): improvement | visual field (Glaucoma): improvement | periretinal fibrosis (Periretinal fibrosis): reduced | refraction (Astigmatism): improvement | visual acuity (Astigmatism): improvement | O.C.T [1, 4]: improvement | visual acuity [1, 4]: improvement | macular thickening ([1]; eye drops given topically instead of intraocular anti VEGF injection): regression | successive OCT controls ([1]; patient three, first round of treatment (Salbutamol)): more improvement but no complete recovery | macular thickening ([1]; patient three, right eye, occult CNV, three months after Salbutamol treatment): incomplete regression | macular thickening (OCT) [1, 5]: incomplete regression | visual acuity [1, 5]: improved | visual function [2]: improved | oedema (Corneal oedema): decreased | vision (Corneal oedema): improve | allergic conjunctivitis and blepharitis [3]: improved | dry eye (Dry eye): improved | retinopathy (Diabetic retinopathy; [6]): improves | visual acuity (Diabetic retinopathy; [6]): improves | total macular volume (OCT) (Diabetic retinopathy; patient one, eye drops 0.1% (w/v), two months after treatment): decreased | vitreous hemorrhage (Vitreous hemorrhage): decreased | improvement of cataract (Cataract): Some improvement | refractive value (Myopia): reduced | visual acuity (Myopia): improvement | inflammatory disorders (Uveitis): reduced
